Patent publication US9290511B2, “Thieno-pyrimidines, useful as potassium channel inhibitors” (XENTION LIMITED, priority 2011, dated 2016)

These compounds were tested against T1, Kir3.1/3.4 (Rattus norvegicus, UniProt P48548+P63251) (assay: Kir3.1/3.4 Electrophysiology Method (manual whole-cell patch clamp)). Conditions: Electrophysiology Method (TABLE 1).
T1 construct: expressed in transfected cells
T1 sequence (P63251 1-501): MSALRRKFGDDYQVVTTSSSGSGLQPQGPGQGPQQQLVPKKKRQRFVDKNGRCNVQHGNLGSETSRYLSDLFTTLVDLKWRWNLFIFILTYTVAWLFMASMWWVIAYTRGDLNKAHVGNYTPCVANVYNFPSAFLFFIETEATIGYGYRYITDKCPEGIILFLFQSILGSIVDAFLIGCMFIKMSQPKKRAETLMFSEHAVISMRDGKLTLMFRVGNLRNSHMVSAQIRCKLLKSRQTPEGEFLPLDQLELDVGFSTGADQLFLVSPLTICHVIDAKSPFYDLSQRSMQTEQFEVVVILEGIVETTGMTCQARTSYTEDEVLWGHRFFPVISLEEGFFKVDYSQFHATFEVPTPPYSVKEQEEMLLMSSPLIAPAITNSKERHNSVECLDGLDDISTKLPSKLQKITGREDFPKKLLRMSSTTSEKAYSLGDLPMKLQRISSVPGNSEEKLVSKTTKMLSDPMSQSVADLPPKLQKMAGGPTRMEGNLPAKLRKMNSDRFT
T1 sequence (P48548 1-419): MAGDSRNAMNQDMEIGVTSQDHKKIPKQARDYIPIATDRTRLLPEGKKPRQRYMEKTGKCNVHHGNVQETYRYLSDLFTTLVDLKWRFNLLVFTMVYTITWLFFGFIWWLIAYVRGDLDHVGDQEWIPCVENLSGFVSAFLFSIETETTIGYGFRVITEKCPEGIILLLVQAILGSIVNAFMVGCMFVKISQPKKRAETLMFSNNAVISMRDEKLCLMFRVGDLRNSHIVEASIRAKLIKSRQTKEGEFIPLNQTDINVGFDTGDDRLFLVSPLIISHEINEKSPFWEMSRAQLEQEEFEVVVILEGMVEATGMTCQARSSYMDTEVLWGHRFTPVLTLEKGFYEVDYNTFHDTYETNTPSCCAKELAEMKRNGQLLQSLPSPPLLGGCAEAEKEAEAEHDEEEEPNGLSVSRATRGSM
Assay type: cell-based
Procedure: Compound activity against the recombinant G-protein activated inward rectifier current encoded by the heterotetramer Kir3.1/3.4 was assessed using manual whole-cell patch technique. The heterotetramer forms the pore-forming channel that conducts the acetylcholine/adenosine-activated potassium current in the heart.
For whole-cell patch-clamp studies, cells (Human Embryonic Kidney 293 stably transfected with rat Kir3.1/3.4) were seeded onto glass coverslips before recordings were made. Cells were seeded in sterile 30 mm Petri dishes at a density to enable isolated cells to be selected for patch clamp experiments. The dishes were stored in a humidified, gassed (5% CO2) incubator at 37° C. until use.
Whole-cell patch-clamp recordings of membrane currents were made following gigaohm seal formation between the patch electrode and the cell using HEKA EPC-9/10 amplifiers controlled by Pulse Software (Ver8.5x/8.6×/8.7×, HEKA, Germany). Coverslips seeded with cells were placed in a recording chamber mounted on the stage of an inverted microscope. During the experiment, the cell of interest was continuously superfused with bather solution delivered via a cannula placed in close proximity to the cell to enable control of the extracellular solution environment. Only those cells with a current <−500 pA (current at −140 mV) were used for experiments. During experiments, series resistance was compensated by a minimum of 70%.
Electrophysiology voltage-step protocols and analysis of data were performed as follows. Data was sampled at 5 kHz, and filtered with a −3 dB bandwidth of 2.5 kHz. Cells were held at a voltage of −60 mV. Currents were evoked by a depolarising voltage step to +60 mV (100 ms) before a ramp-repolarisation (0.4 V·s^−1) to −140 mV (100 ms) before returning to −60 mV. The command waveform was repeatedly applied every 10 s throughout the experiment. Mean currents during 1-99% of the time at −140 mV were analysed using Pulsefit software (v8.x, HEKA, Germany). The voltage protocol was repeatedly applied to achieve a stable current baseline in bather before the test substance was superfused via the cannula in close proximity to the cell under investigation. The test substance was allowed to equilibrate during which time voltage protocol was repeatedly applied and recorded. On reaching steady-state inhibition, the cell was superfused with an identical bather solution containing zero external potassium chloride (replaced by equimolar NaCl). The identical current measurement was made in the absence of potassium to assess the passive leak at −140 mV. The leak current was subtracted from the control and steady-state drug current values. The percentage inhibition of the leak-subtracted current in the presence of test substance was calculated relative to the control leak-subtracted pre-drug value. Internal patch-pipette solution contained in mM: 110 KCl, 20 NaCl, 0.9 GTPγS, 5 Mg-ATP, 5 EGTA, 10 HEPES, pH7.2 corrected with KOH. The external superfusate composition in mM was: 150 (or 160) NaCl, 10 (or 0) KCl, 3 CaCl2, 1 MgCl, 10 HEPES, pH 7.4 corrected with NaOH.

IC50 | SMILES
< 500 nM | CN1CCCCC1CCNCC1CCN(c2ncnc3scc(-c4ccccc4)c23)CC1 (stereo not drawn) [Example 80, 2-(1-methyl-2-piperidyl)-N-[[1-(5-phenylthieno[2,3-d]pyrimidin-4-yl)-4-piperidyl]methyl]ethanamine]
< 500 nM | CN(C)[C@@H]1CCN(CC2CCN(c3ncnc4scc(-c5ccccc5)c34)CC2)C1 [Example 81, (3R)-N,N-dimethyl-1-[[1-(5-phenylthieno[2,3-d]pyrimidin-4-yl)-4-piperidyl]methyl]pyrrolidin-3-amine]
< 500 nM | CC(C)(C)OC(=O)N1CCCC1CCNCC1CCN(c2ncnc3scc(-c4ccccc4)c23)CC1 (stereo not drawn) [Example 82, tert-butyl 2-[2-[[1-(5-phenylthieno[2,3-d]pyrimidin-4-yl)-4-piperidyl]methylamino]ethyl]pyrrolidine-1-carboxylate]
< 500 nM | CN(CC1CCN(c2ncnc3scc(-c4ccccc4)c23)CC1)CC1CCCN1 (stereo not drawn) [Example 83, N-methyl-1-[1-(5-phenylthieno[2,3-d]pyrimidin-4-yl)-4-piperidyl]-N-(pyrrolidin-2-ylmethyl)methanamine]
< 500 nM | CN1CCCC1CNCC1CCN(c2ncnc3scc(-c4ccccc4)c23)CC1 (stereo not drawn) [Example 84, N-[(1-methylpyrrolidin-2-yl)methyl]-1-[1-(5-phenylthieno[2,3-d]pyrimidin-4-yl)-4-piperidyl]methanamine]
500 to 3000 nM | c1ccc(-c2csc3ncnc(N4CCC(CNCCC5CCCN5)CC4)c23)cc1 (stereo not drawn) [Example 85, N-[[1-(5-phenylthieno[2,3-d]pyrimidin-4-yl)-4-piperidyl]methyl]-2-pyrrolidin-2-yl-ethanamine]
< 500 nM | CN(CCC1CCCN1)CC1CCN(c2ncnc3scc(-c4ccccc4)c23)CC1 (stereo not drawn) [Example 86, N-methyl-N-[[1-(5-phenylthieno[2,3-d]pyrimidin-4-yl)-4-piperidyl]methyl]-2-pyrrolidin-2-yl-ethanamine]
< 500 nM | CCN1CCCC1CCN(C)CC1CCN(c2ncnc3scc(-c4ccccc4)c23)CC1 (stereo not drawn) [Example 87, 2-(1-ethylpyrrolidin-2-yl)-N-methyl-N-[[1-(5-phenylthieno[2,3-d]pyrimidin-4-yl)-4-piperidyl]methyl]ethanamine]
< 500 nM | CC(C)N1CCCC1CCN(C)CC1CCN(c2ncnc3scc(-c4ccccc4)c23)CC1 (stereo not drawn) [Example 88, 2-(1-isopropylpyrrolidin-2-yl)-N-methyl-N-[[1-(5-phenylthieno[2,3-d]pyrimidin-4-yl)-4-piperidyl]methyl]ethanamine]
500 to 3000 nM | CC(=O)N1CCCC1CCN(C)CC1CCN(c2ncnc3scc(-c4ccccc4)c23)CC1 (stereo not drawn) [Example 89, 1-[2-[2-[methyl-[[1-(5-phenylthieno[2,3-d]pyrimidin-4-yl)-4-piperidyl]methyl]amino]ethyl]pyrrolidin-1-yl]ethanone]
< 500 nM | N[C@H]1CCCN(CC2CCN(c3ncnc4scc(-c5ccccc5)c34)CC2)C1 [Example 90, (3S)-1-[[1-(5-phenylthieno[2,3-d]pyrimidin-4-yl)-4-piperidyl]methyl]piperidin-3-amine]
500 to 3000 nM | CN1CC(NCC2CCN(c3ncnc4scc(-c5ccccc5)c34)CC2)CC1=O (stereo not drawn) [Example 91, 1-methyl-4-[[1-(5-phenylthieno[2,3-d]pyrimidin-4-yl)-4-piperidyl]methylamino]pyrrolidin-2-one]
500 to 3000 nM | F[C@H]1CCN(CC2CCN(c3ncnc4scc(-c5ccccc5)c34)CC2)C1 [Example 92, 4-[4-[[(3S)-3-fluoropyrrolidin-1-yl]methyl]-1-piperidyl]-5-phenyl-thieno[2,3-d]pyrimidine]
500 to 3000 nM | CN(CC(=O)N1CCCC1)CC1CCN(c2ncnc3scc(-c4ccccc4)c23)CC1 [Example 93, 2-[methyl-[[1-(5-phenylthieno[2,3-d]pyrimidin-4-yl)-4-piperidyl]methyl]amino]-1-pyrrolidin-1-yl-ethanone]
< 500 nM | C=CCNCC1CCN(c2ncnc3scc(-c4ccccc4)c23)CC1 [Example 94, N-[[1-(5-phenylthieno[2,3-d]pyrimidin-4-yl)-4-piperidyl]methyl]prop-2-en-1-amine]
500 to 3000 nM | OCC1CCN(CC2CCN(c3ncnc4scc(-c5ccccc5)c34)CC2)C1 (stereo not drawn) [Example 95, [1-[[1-(5-phenylthieno[2,3-d]pyrimidin-4-yl)-4-piperidyl]methyl]pyrrolidin-3-yl]methanol]
< 500 nM | CC(NC1CC1)C1CCN(c2ncnc3scc(-c4ccccc4)c23)CC1 (stereo not drawn) [Example 96, N-[1-[1-(5-phenylthieno[2,3-d]pyrimidin-4-yl)-4-piperidyl]ethyl]cyclopropanamine]

IC50 | SMILES
< 500 nM | CN1CCC(NCC2CCN(c3ncnc4scc(-c5ccccc5)c34)CC2)CC1 [Example 97, 1-methyl-N-[[1-(5-phenylthieno[2,3-d]pyrimidin-4-yl)-4-piperidyl]methyl]piperidin-4-amine]
500 to 3000 nM | CC1CCC(C)N1CC1CCN(c2ncnc3scc(-c4ccccc4)c23)CC1 (stereo not drawn) [Example 98, 4-[4-[(2,5-dimethylpyrrolidin-1-yl)methyl]-1-piperidyl]-5-phenyl-thieno[2,3-d]pyrimidine]
500 to 3000 nM | FC(F)(F)C1CCN(CC2CCN(c3ncnc4scc(-c5ccccc5)c34)CC2)CC1 [Example 99, 5-phenyl-4-[4-[[4-(trifluoromethyl)-1-piperidyl]methyl]-1-piperidyl]thieno[2,3-d]pyrimidine]
< 500 nM | CN1CCC[C@H]1CCNCC1CCN(c2ncnc3scc(-c4ccccc4)c23)CC1 [Example 100]
< 500 nM | CN(CCC1CCCN1C)CC1CCN(c2ncnc3scc(-c4ccccc4)c23)CC1 (stereo not drawn) [Example 101]
< 500 nM | c1ccc(-c2csc3ncnc(N4CCC(CNCCC5CCCO5)CC4)c23)cc1 (stereo not drawn) [Example 102]
< 500 nM | c1ccc(-c2csc3ncnc(N4CCC(CNCCC5CC5)CC4)c23)cc1 [Example 103]
< 500 nM | CN1CCC(CCNCC2CCN(c3ncnc4scc(-c5ccccc5)c34)CC2)C1 (stereo not drawn) [Example 104]
< 500 nM | O=C(CNCC1CCN(c2ncnc3scc(-c4ccccc4)c23)CC1)N1CCCC1 [Example 105]
< 500 nM | NC(=O)[C@@H]1CCCN1CC1CCN(c2ncnc3scc(-c4ccccc4)c23)CC1 [Example 106]
500 to 3000 nM | CN1CCN(c2nc(N3CCC(CN(CCO)CCO)CC3)c3c(-c4ccccc4)csc3n2)CC1 [Example 107]
500 to 3000 nM | COCCNCC1CCN(c2nc(NCCN3CCCC3)nc3scc(-c4ccccc4)c23)CC1 [Example 109]
< 500 nM | CN1CCC(N(C)CC2CCN(c3nc(NCCN4CCCC4)nc4scc(-c5ccccc5)c34)CC2)C1 (stereo not drawn) [Example 110]
< 500 nM | CN1CCN(c2nc(N3CCC(CN(C)C4CCN(C)C4)CC3)c3c(-c4ccccc4)csc3n2)CC1 (stereo not drawn) [Example 111]
< 500 nM | CN1CCC(N(C)CC2CCN(c3nc(N4CCNCC4)nc4scc(-c5ccccc5)c34)CC2)C1 (stereo not drawn) [Example 112]
500 to 3000 nM | CN1CCN(c2nc(N3CCC(CNC4(CO)CCCC4)CC3)c3c(-c4ccccc4)csc3n2)CC1 [Example 113]
